From US20050158709A1, “Methods for determinging the influence of protein binding on antiretroviral activity” (priority 2002, published 2005)
Like-named read-outs stand apart in the source and are kept apart here.

Tests used:
[1] = system: HIV; conditions: in vitro; increasing AAG; cited from earlier work
[2] = system: R13025; test: EC50 against viral strain R13025; assay type: cell-based, HIV; conditions: Human immunodeficiency virus 1
Procedure: (§1) As an example, protease inhibitors have clinically relevant concentrations in a range of around 500 nM and more, sub-therapeutic concentrations in the range of around 50 nM to around 500 nM, and in vitro testing concentrations in the range of less than around or 50 nM.

[3] = system: LAI; test: EC50 against viral strain LAI; assay type: cell-based, HIV; conditions: Human immunodeficiency virus 1
Procedure: as §1

[4] = system: R13031; test: EC50 against viral strain R13031; assay type: cell-based, HIV; conditions: Human immunodeficiency virus 1
Procedure: as §1

[5] = system: HIV; conditions: cited from earlier work
[6] = system: HIV; conditions: extensive protein binding prevented intracellular diffusion; cited from earlier work
[7] = system: various HIV-1 strains (resistant strains); assay type: cell-based; conditions: for EC50 ratio (human plasma or serum protein vs 10% FCS), concentration range 50 nM-5 nM: EC50 50 nM-5 nM (in vitro testing concentrations, wild type HIV); for EC50 ratio (human plasma or serum protein vs 10% FCS), concentration range 500 nM-50 nM: strains with EC50 500 nM-50 nM (sub-therapeutic concentrations)
Procedure: (§2) The influence of AAG, Human Serum Albumin (HSA) or Human Serum (HS) on the activity of antiretrovirals was measured in a cell-based antiviral assay. A phenotypic assay was performed to measure the ability of resistant virus strains to grow in the presence of each drug of interest, and in the presence of various combinations of plasma or serum proteins at different concentrations: • 50% heat-inactivated human serum (HS) with or without 10% fetal calf serum (FCS) • 1 mg/mL AAG and 10% FCS • 45 mg/mL human serum albumin (HSA) and 10% FCS
(§3) Anti-HIV activity was determined in HIV-or mock-infected MT4 cells by the MTT method as described by Pauwels et al (1988), J.Virol.Meth.20:[…], and Hertogs et al (1998), Antimicrob.Ag.Chemother.42:269-27. Briefly, recombinant or non-recombinant virus, with a specific resistance profile, were grown in cell culture to obtain viral stocks of known concentration. Susceptibility testing of the viral stocks in the presence of various antiviral agents and in the presence of plasma or serum proteins, and a detection system based on MTT determined to which extent agents inhibited replication of the virus strains.
(§4) Virus strains used for these studies had different origins: • HIV strains obtained by in vitro selection in the presence of various antivirals • Recombinant clinical isolates constructed according to the Antivirogram™ method as described by Hertogs et al (1998).
Virus strains with various levels of resistance against each of the PIs were used in similar experiments with AAG.

[8] = system: R13127; test: EC50 against viral strain R13127; assay type: cell-based, HIV; conditions: Human immunodeficiency virus 1
Procedure: as §1

[9] = system: wild type HIV-1 (LAI); test: Cell-based antiviral assay (MT4 cells, MTT method) in the presence of human plasma or serum proteins, wild type HIV-1; conditions: for ratio between EC50 in presence of indicated protein and EC50 in presence of 10% FCS: HS 50% / ratio between EC50 in presence of indicated protein and EC50 in presence of 10% FCS: AAG 1 mg/mL / ratio between EC50 in presence of indicated protein and EC50 in presence of 10% FCS: FCS (10%) / ratio between EC50 in presence of indicated protein and EC50 in presence of 10% FCS: HSA 45 mg/mL: wild type HIV-1 (LAI), median of at least two determinations; for ratio between EC50 in presence of indicated protein and EC50 in presence of 10% FCS: HS 50%: 50% human serum; for ratio between EC50 in presence of indicated protein and EC50 in presence of 10% FCS: AAG 1 mg/mL: AAG 1 mg/mL and 10% FCS; for ratio between EC50 in presence of indicated protein and EC50 in presence of 10% FCS: FCS (10%): FCS 10% (reference); for ratio between EC50 in presence of indicated protein and EC50 in presence of 10% FCS: HSA 45 mg/mL: HSA 45 mg/mL and 10% FCS
Procedure: as §2, §3, §4

[10] = system: T13025; test: EC50 against viral strain T13025; assay type: cell-based, HIV; conditions: Human immunodeficiency virus 1
Procedure: as §1

[11] = system: R13020; test: EC50 against viral strain R13020; assay type: cell-based, HIV; conditions: Human immunodeficiency virus 1
Procedure: as §1

[12] = system: T13127; test: EC50 against viral strain T13127; assay type: cell-based, HIV; conditions: Human immunodeficiency virus 1
Procedure: as §1

[13] = system: R13273; test: EC50 against viral strain R13273; assay type: cell-based, HIV; conditions: Human immunodeficiency virus 1
Procedure: as §1

[14] = system: R13485; test: EC50 against viral strain R13485; assay type: cell-based, HIV; conditions: Human immunodeficiency virus 1
Procedure: as §1

[15] = system: R13036; test: EC50 against viral strain R13036; assay type: cell-based, HIV; conditions: Human immunodeficiency virus 1
Procedure: as §1

[16] = system: R13028; test: EC50 against viral strain R13028; assay type: cell-based, HIV; conditions: Human immunodeficiency virus 1
Procedure: as §1

[17] = protein not given, AAG, median of at least two determinations
[18] = strains with EC50 5 μM-500 nM (clinically relevant concentrations), protein not given, AAG, median of at least two determinations

Structure (SMILES)	EC50 [2] [nM]	EC50 [3] [nM]	EC50 ratio (human plasma or serum protein vs 10% FCS), concentration range 50 nM-5 nM [7, 17]	EC50 ratio (human plasma or serum protein vs 10% FCS), concentration range 500 nM-50 nM [7, 17]	ratio between EC50 in presence of indicated protein and EC50 in presence of 10% FCS: HS 50% [9]	ratio between EC50 in presence of indicated protein and EC50 in presence of 10% FCS: AAG 1 mg/mL [9]	ratio between EC50 in presence of indicated protein and EC50 in presence of 10% FCS: FCS (10%) [9]	ratio between EC50 in presence of indicated protein and EC50 in presence of 10% FCS: HSA 45 mg/mL [9]	EC50 ratio (human plasma or serum protein vs 10% FCS), concentration range 5 μM-500 nM [7]	other results
CC(C)[C@H](NC(=O)N(C)Cc1ccccn1)C(=O)N[C@@H](Cc1ccccc1)[C@H](O)[C@H](O)[C@H](Cc1ccccc1)NC(=O)[C@@H](NC(=O)N(C)Cc1ccccn1)C(C)C [A77003]	–	–	–	–	–	–	–	–	–	antiviral efficacy as the concentration of α1-acid glycoprotein (AAG) was increased [1]: decreased
CC(C)c1nc(CN(C)C(=O)N[C@H](C(=O)N[C@@H](Cc2ccccc2)C[C@H](O)[C@H](Cc2ccccc2)NC(=O)OCc2cncs2)C(C)C)cs1 [Ritonavir, ritonavir]	~2000	~36	–	–	–	–	–	–	–	EC50 [4]: ~407 nM
CC(C)CN(C[C@@H](O)[C@H](Cc1ccccc1)NC(=O)[C@H](CC(N)=O)NC(=O)c1ccc2ccccc2n1)C(=O)NC(C)(C)C [SC-52151, telinavir]	–	–	–	–	–	–	–	–	–	antiretroviral activity in vitro [5]: potent; activity in vivo (clinical efficacy) [6]: insufficient
CC(C)CN(C[C@@H](O)[C@H](Cc1ccccc1)NC(=O)O[C@H]1CCOC1)S(=O)(=O)c1ccc(N)cc1 [amprenavir]	~412	~42	38	14	12	25	1	2	–	EC50 ratio (human plasma or serum protein vs 10% FCS), concentration range 5 μM-500 nM [7, 18]: 5; EC50 [8]: ~2000 nM
CC(C)(C)NC(=O)[C@@H]1C[C@@H]2CCCC[C@@H]2CN1C[C@@H](O)[C@H](Cc1ccccc1)NC(=O)[C@H](CC(N)=O)NC(=O)c1ccc2ccccc2n1 [Saquinavir, saquinavir]	–	–	5	4	5	5	1	3	3	EC50 ratio (human plasma or serum protein vs 10% FCS), concentration range <5 nM [7]: 19; EC50 ratio (human plasma or serum protein vs 10% FCS), concentration range >5 μM [7]: 2; influence of AAG on the anti-HIV activity ([7]; different HIV-1 strains, AAG 1 mg/mL vs 10% FCS, FIG. 1): decreases with increasing inhibitor concentrations; EC50 [10]: ~166 nM; EC50 [11]: ~7000 nM; EC50 [12]: ~710 nM
CC(C)CN(C[C@@H](O)[C@H](Cc1ccccc1)NC(=O)OC1CO[C@H]2OCC[C@@H]12)S(=O)(=O)c1ccc(N)cc1 (some centres unmarked) [compound 1]	–	–	24	12	–	–	–	–	7	EC50 ratio (human plasma or serum protein vs 10% FCS), concentration range <5 nM [7]: 85; EC50 ratio (human plasma or serum protein vs 10% FCS), concentration range >5 μM [7]: 4
Cc1cccc(C)c1OCC(=O)N[C@@H](Cc1ccccc1)[C@@H](O)C[C@H](Cc1ccccc1)NC(=O)[C@H](C(C)C)N1CCCNC1=O [Lopinavir, lopinavir]	–	~9	64	20	5	26	1	5	4	EC50 [13]: ~2000 nM; EC50 [14]: ~367 nM
Cc1c(O)cccc1C(=O)N[C@@H](CSc1ccccc1)[C@H](O)CN1C[C@H]2CCCC[C@H]2C[C@H]1C(=O)NC(C)(C)C [Nelfinavir, nelfinavir]	–	~32	11	9	25	31	1	7	–	EC50 ratio (human plasma or serum protein vs 10% FCS), concentration range 5 μM-500 nM [7, 18]: 5; EC50 [8]: ~8000 nM; EC50 [15]: ~1000 nM; EC50 [16]: ~254 nM
CC(C)(C)NC(=O)[C@@H]1CN(Cc2cccnc2)CCN1C[C@@H](O)C[C@@H](Cc1ccccc1)C(=O)N[C@H]1c2ccccc2C[C@H]1O [Indinavir, indinavir]	~2000	~36	–	–	–	–	–	–	–	effect of AAG and HS on potency against wild-type HIV-1 ([9]; wild-type HIV-1, presence of AAG and HS): unaffected; EC50 [16]: ~261 nM
